Source: ChEMBL document CHEMBL3853261 (Medchemcomm, 2016)
Converted amounts (≈) assume the structure as drawn. The source made the active and inactive calls. No cut-off for these calls is given here.

Experiments:
[1] = Hemolytic activity in human erythrocytes after 1 hr; type: ADME, cell-based, Erythrocyte; conditions: read-out: Activity
[2] = tested on: Mycobacterium tuberculosis; test: Antibacterial activity against Mycobacterium tuberculosis MTCC 300 after 7 days by resazurin microtiter assay; type: functional; conditions: for MIC: MTCC 300, 168 h

NC(=S)N/N=C1\CSC(n2nc(-c3cn(-c4ccccc4)nc3-c3ccc([N+](=O)[O-])cc3)c(O)c2-c2ccc(F)cc2)=N1
hemolysis at 1 h [1]: < 5%
growth inhibition (GI) [2]: Active

NC(=S)N/N=C1\CSC(n2nc(-c3cn(-c4ccccc4)nc3-c3ccc(Cl)cc3)c(O)c2-c2ccc(F)cc2)=N1
hemolysis at 1 h [1]: < 5%
growth inhibition (GI) [2]: Active

NC(=S)N/N=C1\CSC(n2nc(-c3cn(-c4ccccc4)nc3-c3ccc(Br)cc3)c(O)c2-c2ccc(Br)cc2)=N1
hemolysis at 1 h [1]: < 5%

NC(=S)N/N=C1\CSC(n2nc(-c3cn(-c4ccccc4)nc3-c3ccccc3)c(O)c2-c2ccccc2)=N1
hemolysis at 1 h [1]: < 5%
growth inhibition (GI) [2]: Active

NC(=S)N/N=C1\CSC(n2nc(-c3cn(-c4ccccc4)nc3-c3cccc([N+](=O)[O-])c3)c(O)c2-c2ccc([N+](=O)[O-])cc2)=N1
hemolysis at 1 h [1]: < 5%
MIC [2]: 3.9 µg/mL (≈ 6.09 µM)

NC(=S)N/N=C1\CSC(n2nc(-c3cn(-c4ccccc4)nc3-c3ccc(Cl)cc3)c(O)c2-c2ccccc2)=N1
hemolysis at 1 h [1]: < 5%
growth inhibition (GI) [2]: Active

NC(=S)N/N=C1\CSC(n2nc(-c3cn(-c4ccccc4)nc3-c3ccc(Br)cc3)c(O)c2-c2cccc([N+](=O)[O-])c2)=N1
hemolysis at 1 h [1]: < 5%

NC(=S)N/N=C1\CSC(n2nc(-c3cn(-c4ccccc4)nc3-c3cccc([N+](=O)[O-])c3)c(O)c2-c2ccc(Cl)cc2)=N1
hemolysis at 1 h [1]: < 5%
MIC [2]: 62.5 µg/mL (≈ 99.2 µM)

NC(=S)N/N=C1\CSC(n2nc(-c3cn(-c4ccccc4)nc3-c3cccc([N+](=O)[O-])c3)c(O)c2-c2cccc([N+](=O)[O-])c2)=N1
hemolysis at 1 h [1]: < 5%
MIC [2]: 3.9 µg/mL (≈ 6.09 µM)

NC(=S)N/N=C1\CSC(n2nc(-c3cn(-c4ccccc4)nc3-c3cccc([N+](=O)[O-])c3)c(O)c2-c2ccc(F)cc2)=N1
hemolysis at 1 h [1]: < 5%

CO[C@H]1/C=C/O[C@@]2(C)Oc3c(C)c(O)c4c(O)c(c(/C=N/N5CCN(C)CC5)c(O)c4c3C2=O)NC(=O)/C(C)=C\C=C\[C@H](C)[C@H](O)[C@@H](C)[C@@H](O)[C@@H](C)[C@H](OC(C)=O)[C@@H]1C [RIFAMPIN]
MIC [2]: 0.24 µg/mL (≈ 0.292 µM)

NC(=S)N/N=C1\CSC(n2nc(-c3cn(-c4ccccc4)nc3-c3ccc(Br)cc3)c(O)c2-c2ccc([N+](=O)[O-])cc2)=N1
hemolysis at 1 h [1]: < 5%

NC(=S)N/N=C1\CSC(n2nc(-c3cn(-c4ccccc4)nc3-c3ccc([N+](=O)[O-])cc3)c(O)c2-c2ccc(Cl)cc2)=N1
hemolysis at 1 h [1]: < 5%
growth inhibition (GI) [2]: Active

NC(=S)N/N=C1\CSC(n2nc(-c3cn(-c4ccccc4)nc3-c3ccc(Cl)cc3)c(O)c2-c2ccc([N+](=O)[O-])cc2)=N1
hemolysis at 1 h [1]: < 5%
growth inhibition (GI) [2]: Active

NC(=S)N/N=C1\CSC(n2nc(-c3cn(-c4ccccc4)nc3-c3ccc(Cl)cc3)c(O)c2-c2ccc(Cl)cc2)=N1
hemolysis at 1 h [1]: < 5%
MIC [2]: 62.5 µg/mL (≈ 101 µM)

NC(=S)N/N=C1\CSC(n2nc(-c3cn(-c4ccccc4)nc3-c3ccc([N+](=O)[O-])cc3)c(O)c2-c2ccc([N+](=O)[O-])cc2)=N1
hemolysis at 1 h [1]: < 5%
MIC [2]: 62.5 µg/mL (≈ 97.6 µM)

NNC(=O)c1ccncc1 [ISONIAZID]
MIC [2]: 0.48 µg/mL (≈ 3.5 µM)

NC(=S)N/N=C1\CSC(n2nc(-c3cn(-c4ccccc4)nc3-c3ccc(Br)cc3)c(O)c2-c2ccc(Cl)cc2)=N1
hemolysis at 1 h [1]: < 5%

NC(=S)N/N=C1\CSC(n2nc(-c3cn(-c4ccccc4)nc3-c3ccc([N+](=O)[O-])cc3)c(O)c2-c2cccc([N+](=O)[O-])c2)=N1
hemolysis at 1 h [1]: < 5%
MIC [2]: 7.81 µg/mL (≈ 12.2 µM)

NC(=S)N/N=C1\CSC(n2nc(-c3cn(-c4ccccc4)nc3-c3ccc(Br)cc3)c(O)c2-c2ccc(F)cc2)=N1
hemolysis at 1 h [1]: < 5%
